Test system: 494315-158-R-J1-PDC complex spheroid growth, percent test/control
Test: Anticancer human tumor 494315-158-R-J1-PDC patient-derived soft tissue sarcoma cell line growth inhibition [Asc]
Conditions: for IC50: curve of first compound; for viability, T/C: stronger effect = lower value; active means viability on the fitted dose curve at most 10% of control; inactive means the rest
Method in brief: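 Concentration series start at each agent's clinical Cmax, or at 10 microM when none is established, and drop in half-log steps; agents are applied alone or together to complex spheroids built with HUVEC and hMSC.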
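Further: compound exposure lasted seven days after spheroids formed for three days.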

O=C(c1cc(Cc2n[nH]c(=O)c3ccccc23)ccc1F)N1CCN(C(=O)C2CC2)CC1 + CCN1C(C(=O)NC23CCC(C(=O)O)(CC2)CC3)C(c2cccc(Cl)c2F)C2(C(=O)Nc3cc(Cl)ccc32)C12CCCCC2
inactive: viability, T/C (second compound 0.03 µM, first compound 0.0316 µM) 97.3% | viability, T/C (second compound 0.03 µM, first compound 0.1 µM) 109% | viability, T/C (second compound 0.03 µM, first compound 0.316 µM) 94% | viability, T/C (second compound 0.03 µM, first compound 1 µM) 94.6% | viability, T/C (second compound 0.03 µM, first compound 3.16 µM) 80.4% | viability, T/C (second compound 0.03 µM, first compound 10 µM) 51.2% | viability, T/C (second compound 0.0949 µM, first compound 0.0316 µM) 107% | viability, T/C (second compound 0.0949 µM, first compound 0.1 µM) 107% | viability, T/C (second compound 0.0949 µM, first compound 0.316 µM) 96.8% | viability, T/C (second compound 0.0949 µM, first compound 1 µM) 93.8% | viability, T/C (second compound 0.0949 µM, first compound 3.16 µM) 74.3% | viability, T/C (second compound 0.0949 µM, first compound 10 µM) 50.4% | viability, T/C (second compound 0.3 µM, first compound 0.0316 µM) 97.6% | viability, T/C (second compound 0.3 µM, first compound 0.1 µM) 103% | viability, T/C (second compound 0.3 µM, first compound 0.316 µM) 95.2% | viability, T/C (second compound 0.3 µM, first compound 1 µM) 79.1% | viability, T/C (second compound 0.3 µM, first compound 3.16 µM) 74.5% | viability, T/C (second compound 0.3 µM, first compound 10 µM) 53% | viability, T/C (second compound 0.949 µM, first compound 0.0316 µM) 109% | viability, T/C (second compound 0.949 µM, first compound 0.1 µM) 90.2% | viability, T/C (second compound 0.949 µM, first compound 0.316 µM) 92.5% | viability, T/C (second compound 0.949 µM, first compound 1 µM) 95.9% | viability, T/C (second compound 0.949 µM, first compound 3.16 µM) 73.9% | viability, T/C (second compound 0.949 µM, first compound 10 µM) 52% | viability, T/C (second compound 3 µM, first compound 0.0316 µM) 90.3% | viability, T/C (second compound 3 µM, first compound 0.1 µM) 83.9% | viability, T/C (second compound 3 µM, first compound 0.316 µM) 85% | viability, T/C (second compound 3 µM, first compound 1 µM) 91.9% | viability, T/C (second compound 3 µM, first compound 3.16 µM) 81.9% | viability, T/C (second compound 3 µM, first compound 10 µM) 51%
> 10000 nM: IC50 (second compound 0.03 µM) | IC50 (second compound 0.0949 µM) | IC50 (second compound 0.3 µM) | IC50 (second compound 0.949 µM) | IC50 (second compound 3 µM)

Cn1ncnc1[C@H]1c2n[nH]c(=O)c3cc(F)cc(c23)N[C@@H]1c1ccc(F)cc1 + CNC(C)C(=O)NC1CN(S(=O)(=O)c2cccc(S(=O)(=O)N3CCC4CCC(C(=O)NC(c5ccccc5)c5ccccc5)N4C(=O)C(NC(=O)C(C)NC)C3)c2)CCC2CCC(C(=O)NC(c3ccccc3)c3ccccc3)N2C1=O
0.316 nM: IC50 (second compound 0.1 µM)
< 0.316 nM: IC50 (second compound 0.316 µM) | IC50 (second compound 1 µM)
inactive: viability, T/C (second compound 0.01 µM, first compound 0.000316 µM) 65.8% | viability, T/C (second compound 0.01 µM, first compound 0.001 µM) 73% | viability, T/C (second compound 0.01 µM, first compound 0.00316 µM) 59.1% | viability, T/C (second compound 0.01 µM, first compound 0.01 µM) 53.5% | viability, T/C (second compound 0.01 µM, first compound 0.0316 µM) 49.6% | viability, T/C (second compound 0.01 µM, first compound 0.1 µM) 46.1% | viability, T/C (second compound 0.0316 µM, first compound 0.000316 µM) 56.5% | viability, T/C (second compound 0.0316 µM, first compound 0.001 µM) 59.9% | viability, T/C (second compound 0.0316 µM, first compound 0.00316 µM) 50.1% | viability, T/C (second compound 0.0316 µM, first compound 0.01 µM) 36.8% | viability, T/C (second compound 0.0316 µM, first compound 0.0316 µM) 38% | viability, T/C (second compound 0.0316 µM, first compound 0.1 µM) 34.1% | viability, T/C (second compound 0.1 µM, first compound 0.000316 µM) 44.1% | viability, T/C (second compound 0.1 µM, first compound 0.001 µM) 53.4% | viability, T/C (second compound 0.1 µM, first compound 0.00316 µM) 49.6% | viability, T/C (second compound 0.1 µM, first compound 0.01 µM) 32% | viability, T/C (second compound 0.1 µM, first compound 0.0316 µM) 33.4% | viability, T/C (second compound 0.1 µM, first compound 0.1 µM) 31.2% | viability, T/C (second compound 0.316 µM, first compound 0.000316 µM) 49.9% | viability, T/C (second compound 0.316 µM, first compound 0.001 µM) 38.8% | viability, T/C (second compound 0.316 µM, first compound 0.00316 µM) 33.7% | viability, T/C (second compound 0.316 µM, first compound 0.01 µM) 29.4% | viability, T/C (second compound 0.316 µM, first compound 0.0316 µM) 27.2% | viability, T/C (second compound 0.316 µM, first compound 0.1 µM) 26.4% | viability, T/C (second compound 1 µM, first compound 0.000316 µM) 41.1% | viability, T/C (second compound 1 µM, first compound 0.001 µM) 40.1% | viability, T/C (second compound 1 µM, first compound 0.00316 µM) 38.5% | viability, T/C (second compound 1 µM, first compound 0.01 µM) 26.9% | viability, T/C (second compound 1 µM, first compound 0.0316 µM) 29% | viability, T/C (second compound 1 µM, first compound 0.1 µM) 22.6%
34.3 nM: IC50 (second compound 0.01 µM)
3.18 nM: IC50 (second compound 0.0316 µM)

Source: PubChem BioAssay AID1963420 (Molecular Pharmacology Branch, DTP, NCI, 2024)
